Measurements reported in patent US6818215B2, “Antibodies to senescent cell-derived inhibiters of DNA synthesis” (priority 1991, dated 2004).

What was measured:
[1] = tested on: SV40 early promoter with mutant E2F binding sites (SV/E2Fm); assay: CAT reporter transcription assay, SV/E2Fm-CAT; format: cell-based; details: A31 cells
Experimental: (§1) The effect of the human SDI-1 on transcription driven by two E2F-responsive promoters was determined. Proliferating A31 cells were transfected with an SDI-1 expression vector in which the SDI-1 cDNA was driven by the strong constitutive cytomegalovirus early promoter (CMV) together with a reporter vector in which the chloramphenicol acetyltransferase (CAT) gene was driven by either the hamster dihydrofolate reductase (DHFR) promoter or the human cdc2 promoter (cdc2-CAT). A31 cells are Balb/c murine 3T3 fibroblasts whose origin and growth properties have been described (Lu, K. et al., Molec. Cell. Biol. 9:3411-3417 (1989); Dimri, G. P et al., J. Biol. Chem. 269:16180-16186 (1994), herein incorporated by reference). Cells were transfected with 2 μg of expression vectors, reporters vectors (for transactivation) and the CMV-β-gal identification/normalization vector using Lipofectamine (Gibco-BRL), as described by Dimri, G. P et al. (J. Biol. Chem. 269:16180-16186 (1994), herein incorporated by reference), The vector backbone was added to the mixture as needed to equalize the amount of transfected DNA. […]
(§2) To more critically ascertain whether the inhibition of transcription by SDI-1 was E2F-dependent, three E2F binding sites were inserted into the SV40 early promoter and the effect of CMV-SDI-1 on CAT activity driven by this modified promoter (SV/E2F) was determined. […]

[2] = tested on: SV40 early promoter with three E2F binding sites (SV/E2F); assay: CAT reporter transcription assay, SV/E2F-CAT; format: cell-based; details: A31 cells
Experimental: as §1, §2

[3] = tested on: B16 murine melanoma cell line; assay: Lipofectamine liposome-mediated delivery of SDI-1 protein; format: cell-based
[4] = tested on: Human umbilical vein endothelial cells; assay: GST-SDI-1 fusion protein, thymidine incorporation; format: cell-based
Experimental: (§3) As indicated above, SDI-1 has the capacity to suppress the proliferation of tumor cells. […] In the experiment, 5×10^3 cells were plated overnight at 37° C. (only for adherent cells) and then incubated with the SDI fusion protein. After 48 hours at 37° C., cells were pulsed with thymidine for 24 hours and then harvested. The results of this experiment are shown in Table 8; the thymidine incorporation by untreated cells was expressed as 100%. all determinations were made in quadruplicate.

HeLa cells = assay: Transient transfection of SDI-1, inhibition of DNA synthesis; format: cell-based, human
Text: (§4) This provides further evidence that SDI-1 behaves like the inhibitor previously detected in senescent cells.

[5] = tested on: neonatal foreskin cell line (CSC303); assay: as above; format: cell-based, human
Text: as §4

WI38 immortal cell line = assay: as above; format: cell-based, human
Text: as §4

[6] = tested on: Lung adenocarcinoma (A-549); assay: GST-SDI-1 fusion protein, thymidine incorporation; format: cell-based, human
Experimental: as §3

[7] = tested on: E2F/p107/cdk/cyclin complexes; assay: Effect of recombinant SDI-1 on DNA-protein complexes at an E2F binding site in nuclear extracts; format: biochemical; details: extracts from cells in late G1
Text: E2F binding sites are occupied by protein complexes, whose composition—at least by in vitro analyses—depend on the cellular growth state and stage of the cell cycle (Chellappan, S. P. et al., Cell 65:1053-1061 (1991); Nevins, J. R., Science 258:424-429 (1992); Farnham, P. J. et al., Biochim. Biophys. Acta 1155:125-131 (1993)). To determine which if any of these complexes might be a target for SDI-1, the effect of recombinant SDI-1 protein on DNA-protein complexes that associate with an E2F binding site in vitro was determined
E2F-1 is induced a few hours prior to S phase (Shan, B. et al., Molec. Cell. Biol. 12:5620-5631 (1992); Slansky, J. E. et al., Molec. Cell. Biol. 13:1610-1618 (1993); Dimri, G. P et al., J. Biol. Chem. 269:16180-16186 (1994)) at about which time nuclear extracts from cells in mid to late G1 contain increased levels of free E2F, E2F in association with pRb, and E2F in association with p107, cdk2 and cyclin E (mid-late G1-early S). Of the complexes present in extracts from cells in late G1, only the E2F/p107/cdk/cyclin complexes were disrupted by recombinant SDI-1.

SV 40 early promoter = assay: CAT reporter transcription assay, SV-CAT; format: cell-based
Experimental: The effect of the human SDI-1 on transcription driven by two E2F-responsive promoters was determined. Proliferating A31 cells were transfected with an SDI-1 expression vector in which the SDI-1 cDNA was driven by the strong constitutive cytomegalovirus early promoter (CMV) together with a reporter vector in which the chloramphenicol acetyltransferase (CAT) gene was driven by either the hamster dihydrofolate reductase (DHFR) promoter or the human cdc2 promoter (cdc2-CAT). A31 cells are Balb/c murine 3T3 fibroblasts whose origin and growth properties have been described (Lu, K. et al., Molec. Cell. Biol. 9:3411-3417 (1989); Dimri, G. P et al., J. Biol. Chem. 269:16180-16186 (1994), herein incorporated by reference). Cells were transfected with 2 μg of expression vectors, reporters vectors (for transactivation) and the CMV-β-gal identification/normalization vector using Lipofectamine (Gibco-BRL), as described by Dimri, G. P et al. (J. Biol. Chem. 269:16180-16186 (1994), herein incorporated by reference), The vector backbone was added to the mixture as needed to equalize the amount of transfected DNA. Seventy-two hours later, the cells were lysed and assayed for chloramphenicol acetyl transferase (CAT) and β-galactosidase activity. Both DHFR and cdc2 were expressed by proliferating cells, largely due to E2F-mediated transcription that is dependent on E2F binding sites in the 5′ regulatory regions of these genes (Slansky, J. E. et al., Molec. Cell. Biol. 13:1610-1618 (1993); Dalton, S., EMBO J. 11:1797-1804 (1992)).
In sharp contrast to the response of the DHFR and cdc2 promoters, CMV-SDI-1 had little or no effect on reporter activity driven by either the SV 40 early promoter (SV-CAT or the c-fos promoter (fos-CAT) (Table 16). Neither the SV40 early genes nor c-fos has been reported to be E2F-responsive.

SUSMI = assay: Transient transfection of SDI-1, inhibition of DNA synthesis; format: cell-based
Text: as §4

[8] = tested on: SV40 transformed cell line GM639; assay: as above; format: cell-based
Text: as §4

Question: With “SDI-1: senescent cell derived inhibitor of DNA synthesis, 164 amino acid protein, SEQ ID NO:2” as the substance, how does the “Transcription (Normalized) % Activity” value [1] read?
Answer: 93%

Question: And the “Transcription (Normalized) % Inhibition” value [1]?
Answer: 7%

Question: What about the “Transcription (Normalized) % Activity” value [2] of the same substance?
Answer: 50%

Question: And the “Transcription (Normalized) % Inhibition” value [2]?
Answer: 50%

Question: What about the “3H-Tdr Uptake” value ([3]; 48 hr) of the same substance?
Answer: 2134 ± 294

Question: What about the “Cell Number” value ([3]; 48 hr) of the same substance?
Answer: 7820 ± 141

Question: And the “Ratio of SDI-1 Treated to BSA Treated, 3H-Tdr Uptake” value ([3]; 48 hr)?
Answer: 0.34

Question: What about the “Ratio of SDI-1 Treated to BSA Treated, Cell No.” value ([3]; 48 hr) of the same substance?
Answer: 0.29

Question: And the “detection of SDI-1 in cells” value ([3]; 72 hours after liposome treatment)?
Answer: not detectable

Question: And the “3H-Tdr Uptake” value ([3]; 72 hr)?
Answer: 8765 ± 533

Question: What about the “Cell Number” value ([3]; 72 hr) of the same substance?
Answer: 23710 ± 1485

Question: What about the “Ratio of SDI-1 Treated to BSA Treated, 3H-Tdr Uptake” value ([3]; 72 hr) of the same substance?
Answer: 0.3

Question: What about the “Ratio of SDI-1 Treated to BSA Treated, Cell No.” value ([3]; 72 hr) of the same substance?
Answer: 0.28

Question: And the “fraction of cells with SDI-1 detected in the nuclei” value ([3]; after 3-4 hours)?
Answer: ½

Question: What about the “fraction of cells with SDI-1 detected in the nuclei” value ([3]; after 9 hours) of the same substance?
Answer: ⅓

Question: And the “Relative Cell (% of Control)” value ([4]; 30 μg/ml)?
Answer: 5 ± 1 % of Control

Question: And the “Relative Cell (% of Control)” value ([4]; 50 μg/ml)?
Answer: 2 ± 1 % of Control

Question: And the “inhibition (DNA synthesis)” value (HeLa cells)?
Answer: < 20%

Question: What about the “inhibition (DNA synthesis)” value [5] of the same substance?
Answer: 40-50%

Question: What about the “inhibition (DNA synthesis)” value (WI38 immortal cell line) of the same substance?
Answer: 40-50%

Question: What about the “Relative Cell (% of Control)” value ([6]; 30 μg/ml) of the same substance?
Answer: 40 ± 1 % of Control

Question: And the “Relative Cell (% of Control)” value ([6]; 50 μg/ml)?
Answer: 25 ± 3 % of Control

Question: And the “effect on E2F/p107/cdk/cyclin complexes” value [7]?
Answer: disrupted

Question: And the “% Activity” value (SV 40 early promoter; SDI-1 1.0 μg)?
Answer: 103%

Question: And the “% Inhibition” value (SV 40 early promoter; SDI-1 1.0 μg)?
Answer: 0%

Question: And the “Normalized CAT Activity” value (SV 40 early promoter; SDI-1 1.0 μg)?
Answer: 3743 counts per minute

Question: And the “% Activity” value (SV 40 early promoter; SDI-1 2.0 μg)?
Answer: 106%

Question: And the “% Inhibition” value (SV 40 early promoter; SDI-1 2.0 μg)?
Answer: 0%

Question: And the “Normalized CAT Activity” value (SV 40 early promoter; SDI-1 2.0 μg)?
Answer: 3828 counts per minute

Question: And the “% Activity” value (SV 40 early promoter; SDI-1 4.0 μg)?
Answer: 93%

Question: And the “% Inhibition” value (SV 40 early promoter; SDI-1 4.0 μg)?
Answer: 7%

Question: And the “Normalized CAT Activity” value (SV 40 early promoter; SDI-1 4.0 μg)?
Answer: 3366 counts per minute

Question: And the “inhibition (DNA synthesis)” value (SUSMI)?
Answer: 40%

Question: And the “inhibition (DNA synthesis)” value [8]?
Answer: < 20%
